Measured values taken from US9162979B2, “1,5-Diary1-2-alkylpyrrole-3-substituted nitro esters, selective COX-2 inhibitors and nitric oxide donors” (ROTTAPHARM BIOTECH S.R.L., priority 2010, dated 2015).

Tests used:
[1] = tested on: isolated rings of thoracic aorta; experiment: Evaluation of release of NO: vasorelaxing activity on endothelium-denuded aortic rings contracted with KCl; set-up: species or system rat; key to NO release properties Emax (maximum vasorelaxing effect) / NO release properties pIC50 (vasorelaxing potency): S.E: Scarcely Effective: it is not possible to detect NO release comparable to the other compounds mentioned here; settings: for IC50 / Emax: Rattus norvegicus; for IC50 / NO release properties pIC50 (vasorelaxing potency): concentration reducing contractile tone induced by 20 mM KCl by half; for IC50: read-out: NO release properties pIC50 (vasorelaxing potency) (converted); for Emax / NO release properties Emax (maximum vasorelaxing effect): relative to contractile tone induced by 20 mM KCl, 1 nM-10 μM; for Emax: read-out: NO release properties Emax (maximum vasorelaxing effect)
Description: The activity of the compounds was evaluated on isolated rings of thoracic aorta of normotensive male Wistar rats (250-350 g). After light anaesthesia with ether, the rats were sacrificed by cervical dislocation and exsanguination. The aortas were immediately excised, extraneous tissues were removed and the endothelial layer was removed by gently rubbing the surface with a hypodermic needle. Rings of aorta with a width of 5 mm were suspended, with a preload of 2 g, in 20-ml organ baths, containing a solution of “Tyrode” (composition of the saline solution in mM: NaCl 136.8; KCl 2.95; CaCl2 1.80; MgSO4 1.05; NaH2PO4 0.41; NaHCO3 11.9; glucose 5.5), thermostatically controlled at 37° C. and kept in an atmosphere of O2 (95%) and CO2 (5%). […] were recorded by means of an isometric transducer (FTO3 Erba), connected to a microdynamometer (Buxco Electronics).
60 minutes after preparation, removal of the endothelium was confirmed by acetylcholine (ACH) (10 μM) treatment of the vascular rings pre-contracted with KCl (20 mM). Relaxation of less than 10% of the contraction induced by KCl was considered as representative of acceptable removal of the endothelial layer, whereas organs displaying relaxation ≧10% were discarded. 40 minutes after confirmation of complete removal of the endothelium, the aortas were contracted by treatment with a single dose of KCl (20 mM) and after the contraction reached a stable plateau, increasing cumulative concentrations (with progressive increments of 3 times) of the test compounds (1 nM-10 μM) were added. It was found from preliminary experiments that the contraction induced by KCl (20 mM) remained stable in a tonic state for at least 40 minutes. The same experiments were performed in the presence of a well-known inhibitor of guanylate cyclase: ODQ 1 μM, which was incubated in aorta preparations after confirmation of removal of the endothelium.
Analysis of the results. The vasorelaxing activity was evaluated as a percentage (%) relative to the contractile tone induced by 20 mM KCl. The pharmacodynamic efficacy parameter (Emax) corresponds to the maximum vasorelaxing effect induced by the molecule tested, expressed as percentage relative to the contractile tone induced by 20 mM KCl. When the limit concentration of 10 μM (the highest concentration administered) of the test compounds has not reached the maximum effect, the efficacy parameter (Emax) corresponds to the vasorelaxing effect induced by the limit concentration (expressed as percentage relative to the contractile tone induced by 20 mM KCl). The pharmacodynamic parameter of potency of the compounds was expressed as pIC50 calculated as the negative logarithm of the molar concentration of test compound that reduces the contractile tone induced by 20 mM KCl by half. […] The parameters of efficacy and potency were expressed as mean±standard error, for 5-10 experiments. The experimental data were analysed by the program GraphPad Prism 3.0.

[2] = biological target: COX-2 (Mus musculus (Mouse), UniProt Q05769); experiment: Evaluation of COX-2 activity: PGE2 production in LPS-stimulated J774 cells; type: cell-based, murine; settings: J774 cells stimulated 24 hours with LPS 10 μg/mL; PGE2 by radio-immunological assay; read-out: Cyclooxygenase inhibition COX-2 IC50
Chain of COX-2 (Q05769 18-604): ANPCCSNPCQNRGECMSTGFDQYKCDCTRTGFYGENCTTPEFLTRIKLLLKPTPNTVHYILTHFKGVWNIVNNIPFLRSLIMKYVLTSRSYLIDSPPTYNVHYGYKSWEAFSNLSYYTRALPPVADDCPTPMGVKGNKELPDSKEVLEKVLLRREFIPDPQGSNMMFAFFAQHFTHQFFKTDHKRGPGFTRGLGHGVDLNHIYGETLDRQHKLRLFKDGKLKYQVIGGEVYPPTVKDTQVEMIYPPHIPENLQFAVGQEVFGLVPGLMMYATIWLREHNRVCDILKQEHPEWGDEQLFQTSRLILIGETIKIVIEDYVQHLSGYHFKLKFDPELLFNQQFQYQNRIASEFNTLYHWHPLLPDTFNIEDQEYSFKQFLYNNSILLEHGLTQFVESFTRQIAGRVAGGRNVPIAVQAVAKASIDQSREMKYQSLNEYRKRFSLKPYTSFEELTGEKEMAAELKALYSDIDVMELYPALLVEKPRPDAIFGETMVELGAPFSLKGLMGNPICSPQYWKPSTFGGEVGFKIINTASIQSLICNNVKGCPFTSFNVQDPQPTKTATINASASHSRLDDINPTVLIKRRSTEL
Description: The murine monocyte/macrophage cell line J774 is grown in Dulbecco's modified Eagle's medium (DMEM), enriched with glutamine (2 mM), HEPES (25 mM), penicillin (100 u/mL), streptomycin (100 μg/mL), 10% of fetal bovine serum (FBS) and 1.2% of sodium pyruvate. […] Just before the experiments, the culture medium is replaced with fresh medium without FBS to avoid interference during the radio-immunological phase and the cells are stimulated as described below.
The supernatants are collected for evaluating, by means of radio-immunological assays, the amount of PGE2 produced.
In each group of experiments, wells were used in triplicate for the different treatment conditions. […] The data were evaluated using the sigmoidal dose-response equation (variable slope) (GraphPad software). IC50 and the 95% precision intervals were calculated with the program GraphPad Instat (GraphPad software).

Row | Structure (SMILES) | Emax [1] [%] | IC50 [2] [nM] | other results
1 | Cc1c(CC(=O)OCCO[N+](=O)[O-])cc(-c2ccc(S(C)(=O)=O)cc2)n1-c1ccccc1 [Example 1, 2-(Nitrooxy)ethyl-2-[1-phenyl-2-methyl-5-(4-methylsulphonylphenyl)-1H-pyrrol-3-yl]acetate] | 66 ± 3 | 43 | IC50 [1]: 1410 nM
2 | Cc1c(CCOCCCO)cc(-c2ccc(S(C)(=O)=O)cc2)n1-c1cccc(F)c1 [Example 42-II, 3-[2-(1-(3-Fluorophenyl)-2-methyl-5-(4-methylsulphonylphenyl)-1H-pyrrol-3-yl)ethoxy]propanol] | – | 1500 | –
3 | Cc1c(CC(=O)NC(CO)C(=O)O)cc(-c2ccc(S(C)(=O)=O)cc2)n1-c1ccc(F)cc1 (stereo in doubt) [Example 29-II, (S)-3-(Hydroxy)-2-[[1-(4-fluorophenyl)-2-methyl-5-(4-methylsulphonylphenyl)-1H-pyrrol-3-yl]acetamido]propanoic Acid] | – | 160 | –
4 | Cc1c(CC(=O)NC(CCO)C(=O)O)cc(-c2ccc(S(C)(=O)=O)cc2)n1-c1ccc(F)cc1 (racemic) [Example 32-II, (R,S)-4-(Hydroxy)-2-[[1-(4-fluorophenyl)-2-methyl-5-(4-methylsulphonylphenyl)-1H-pyrrol-3-yl]acetamido]butanoic Acid] | – | 86 | –
5 | CSc1ccc(-n2c(-c3ccc(S(C)(=O)=O)cc3)cc(CC(=O)OCCCCO)c2C)cc1 [Example 14-II, 4-(Hydroxy)butyl-2-[1-(4-thiomethylphenyl)-2-methyl-5-(4-methylsulphonylphenyl)-1H-pyrrol-3-yl]acetate] | – | 55 | –
6 | COc1ccc(-n2c(-c3ccc(S(C)(=O)=O)cc3)cc(CC(=O)OCCCO)c2C)cc1 [Example 9-II, 3-Hydroxypropyl-[1-(4-methoxyphenyl)-2-methyl-5-(4-methylsulphonylphenyl)-1H-pyrrol-3-yl]-acetate] | – | 700 | –
7 | Cc1c(CC(=O)NC(CO)C(=O)O)cc(-c2ccc(S(C)(=O)=O)cc2)n1-c1cccc(F)c1 (stereo in doubt) [Example 30-II, (S)-3-(Hydroxy)-2-[1-(3-fluorophenyl)-2-methyl-5-(4-methylsulphonylphenyl)-1H-pyrrol-3-yl]acetamido]propanoic Acid] | – | 57 | –
8 | Cc1c(CC(=O)NCCO)cc(-c2ccc(S(C)(=O)=O)cc2)n1-c1cccc(F)c1 [Example 24-II, N-[(2-hydroxy)ethyl]-2-[1-(3-fluorophenyl)-2-methyl-5-(4-methylsulphonylphenyl)-1H-pyrrol-3-yl]acetamide] | – | 290 | –
9 | Cc1c(CC(=O)NC(CCO[N+](=O)[O-])C(=O)O)cc(-c2ccc(S(C)(=O)=O)cc2)n1-c1cccc(F)c1 (racemic) [Example 33, (R,S)-4-(Nitroxy)-2-[[1-(3-fluorophenyl)-2-methyl-5-(4-methylsulphonylphenyl)-1H-pyrrol-3-yl]acetamido]butanoic Acid] | 23 ± 2 | – | –
10 | Cc1c(CC(=O)OCCCCO)cc(-c2ccc(S(C)(=O)=O)cc2)n1-c1cccc(F)c1 [Example 12-II, 4-(hydroxy)butyl-[1-(3-fluorophenyl)-2-methyl-5-(4-methylsulphonylphenyl)-1H-pyrrol-3-yl]-acetate] | – | 110 | –
11 | CSc1ccc(-n2c(-c3ccc(S(C)(=O)=O)cc3)cc(CC(=O)OCCCCO[N+](=O)[O-])c2C)cc1 [Example 14, 4-(Nitrooxy)butyl-2-[1-(4-thiomethylphenyl)-2-methyl-5-(4-methylsulphonylphenyl)-1H-pyrrol-3-yl]acetate] | 55 ± 15 | 220 | vasorelaxing effect in the presence of ODQ ([1]; ODQ 1 μM, guanylate cyclase inhibitor): not fully antagonized by ODQ; IC50 [1]: 5010 nM
12 | Cc1c(CC(=O)OCCCO)cc(-c2ccc(S(C)(=O)=O)cc2)n1-c1cccc(F)c1 [Example 8-II, 3-Hydroxypropyl-[1-(3-fluorophenyl)-2-methyl-5-(4-methylsulphonylphenyl)-1H-pyrrol-3-yl]-acetate] | – | 23 | –
13 | Cc1c(CC(=O)OCCO)cc(-c2ccc(S(C)(=O)=O)cc2)n1-c1ccccc1 [Example 1-II] | – | 27 | –
14 | CSc1ccc(-n2c(-c3ccc(S(C)(=O)=O)cc3)cc(CC(=O)OCCCO)c2C)cc1 [Example 10-II, 3-(Hydroxy)propyl-[1-(4-methylthiophenyl)-2-methyl-5-(4-methylsulphonylphenyl)-1H-pyrrol-3-yl]-acetate] | – | 260 | –
15 | CSc1ccc(-n2c(-c3ccc(S(C)(=O)=O)cc3)cc(CC(=O)OCCCO[N+](=O)[O-])c2C)cc1 [Example 10, 3-(Nitroxy)propyl-[1-(4-methylthiophenyl)-2-methyl-5-(4-methylsulphonylphenyl)-1H-pyrrol-3-yl]-acetate] | 41 ± 8 | 27 | –
16 | CSc1ccc(-n2c(-c3ccc(S(C)(=O)=O)cc3)cc(CC(=O)OCCO[N+](=O)[O-])c2C)cc1 [Example 5, 2-(Nitroxy)ethyl-[1-(4-methylthiophenyl)-2-methyl-5-(4-methylsulphonylphenyl)-1H-pyrrol-3-yl]-acetate] | 64.9 ± 1.4 | – | IC50 [1]: 457 nM
17 | Cc1c(CC(=O)NC(CO[N+](=O)[O-])C(=O)O)cc(-c2ccc(S(C)(=O)=O)cc2)n1-c1ccc(F)cc1 (stereo in doubt) [Example 29, (S)-3-(Nitroxy)-2-[[1-(4-fluorophenyl)-2-methyl-5-(4-methylsulphonylphenyl)-1H-pyrrol-3-yl]acetamido]propanoic Acid] | – | 310 | NO release properties pIC50 (vasorelaxing potency) [1]: S.E; NO release properties Emax (maximum vasorelaxing effect) [1]: S.E
18 | Cc1c(CCOCCCO[N+](=O)[O-])cc(-c2ccc(S(C)(=O)=O)cc2)n1-c1ccccc1 [Example 40, 3-[2-[2-(1-Phenyl-2-methyl-5-(4-methylsulphonylphenyl)-1H-pyrrol-3-yl)ethoxy]propyl Nitrate] | 48.2 ± 0.5 | 15 | –
19 | CSc1ccc(-n2c(-c3ccc(S(C)(=O)=O)cc3)cc(CC(=O)OCCO)c2C)cc1 [Example 5-II, 2-Hydroxyethyl-[1-(4-methylthiophenyl)-2-methyl-5-(4-methylsulphonylphenyl)-1H-pyrrol-3-yl]-acetate] | – | 85 | –
20 | Cc1c(CC(=O)NC(CO[N+](=O)[O-])C(=O)O)cc(-c2ccc(S(C)(=O)=O)cc2)n1-c1cccc(F)c1 (stereo in doubt) [Example 30, (S)-3-(Nitroxy)-2-[1-(3-fluorophenyl)-2-methyl-5-(4-methylsulphonylphenyl)-1H-pyrrol-3-yl]acetamido]propanoic Acid] | – | 140 | NO release properties pIC50 (vasorelaxing potency) [1]: S.E; NO release properties Emax (maximum vasorelaxing effect) [1]: S.E
21 | Cc1c(CC(=O)OCC(CO[N+](=O)[O-])O[N+](=O)[O-])cc(-c2ccc(S(C)(=O)=O)cc2)n1-c1ccccc1 (racemic) [Example 15, (R,S)-2,3-bis(Nitrooxy)propyl-2-[1-phenyl-2-methyl-5-(4-methylsulphonylphenyl)-1H-pyrrol-3-yl]acetate] | 57 ± 6 | – | IC50 [1]: 1120 nM
22 | Cc1c(CCOCCO[N+](=O)[O-])cc(-c2ccc(S(C)(=O)=O)cc2)n1-c1ccccc1 [Example 36, 2-[2-[1-Phenyl-2-methyl-5-(4-methylsulphonylphenyl)-1H-pyrrol-3-yl]ethoxy]ethyl Nitrate] | 65 | 17 | IC50 [1]: 6030 nM
